Results published in US20230135894A1, “MK2 DEGRADERS AND USES THEREOF” (Kymera Therapeutics, Inc., priority 2021, published 2023).

Experiments:
MK2 [1] = target: T1, MK2 (Homo sapiens, UniProt P49137); assay: MK2 degradation in human THP-1 monocytic cells (MSD, 24 h); assay type: cell-based; design: endogenous in cells; key to MK2 MSD THP-1 degradation 24 h GMean External Abs DC50: A (<0.001 μM); B (0.001-0.01 μM); C (0.01-0.1 μM); D (>0.1 μM); —: “-”=not tested or inactive; details: for Dmax: THP-1, THP-1 cells; for DC50 / MK2 MSD THP-1 degradation 24 h GMean External Abs DC50: THP-1 cells; for DC50: read-out: MK2 MSD THP-1 degradation 24 h GMean External Abs DC50
Protocol: MK2 Degradation in Human THP-1 Monoctyic Cells
(§1) The human monocytic cancer cell line THP-1 (ATCC (TIB-202)) was cultured in 96 well plates (Corning 3894) at a density of 200,000 cells per well in 100 microlitres in complete growth medium of RPMI 1640 (Gibco) pus 10% fetal Bovine Serum (Corning) and Penicillin/Streptomycin (SolarBio) at 37 degrees Celsius and 5% CO2. A serial dilution of each compound (usually 3 to 5 fold serial dilutions up to 10 separate concentration points) was added to individual wells from a 10 millimolar stock solution, at a background concentration of 0.1% DMSO and the cells were shaken at 600 rpm for 5 minutes and then were cultured for 24 hours at 37 degrees Celsius and 5% carbon dioxide. Separately, a custom MSD (MesoScaleDiscovery, L15XA-3) plate for detection of human MK2 was prepared by coating the plate with the commercial AbCam ab247272 reagent in 1×Phosphate Buffered Saline at 40 microlitres per well and incubated at 4 degrees Celsius overnight. The next day, the MSD plate was washed with 150 microlitres of Tween buffered saline, blocked with MSD blocking buffer (3% Blocker A from MSD), and washed again.
(§2) The cell plate was centrifuged at 3,200 g for 5 minutes and the supernatant was discarded and 100 microlitres of RIPA lysis buffer (containing proteinase inhibitors, Boston BioProducts BP-115D) was added and the plate was sealed and shaken on ice for 20 minutes. The plate was centrifuged as before and 70 microlitres of sample lysate was added to the MSD plates and they were shaken at room temperature for 1 hour at 600 rpm. The MSD plate was washed 3 times as before and then the primary MK2 detection antibody (Santa Cruz sc-100393) was added at a final concentration of 1 microgram per ml at 25 microlitres per well and shaken at room temperature for 1 hour at 600 rpm.
(§3) After 3 more washes, the secondary detection antibody (SULFO-Tag anti rabbit antibody R32AB-5) was added at a final concentration of 1 microgram per ml at 25 microlitres per well and shaken at room temperature for 1 hour at 600 rpm. After 3 more washes, the 1×MSD (diluted from 5× concentrate with water) reading buffer was added at 150 microlitres per well and read on the MSD instrument Meso Sector S 600.
(§4) The inhibition/degradation curves and DC50 values were plotted and calculated using XL Fit (version v5.3.1.3) using equation 201 and a 4 parameter logistic model whereby fit=(A+((B−A)/(1+((x/C)D))) where A is the Bottom and B is the Top and C is the IC50 and D is the slope and high C is the signal for the DMSO treated cells and Low C is the signal is the signal for the lysis buffer.

MK2 [2] = target: T1, MK2; assay: MK2 degradation in human SW1353 cells (MSD, 24 h); assay type: cell-based; design: endogenous in cells; host or cells: SW-1353 (ATCC HTB-94); key to MK2 MSD SW1353 degradation 24 h GMean External Abs DC50: A (<0.001 μM); B (0.001-0.01 μM); C (0.01-0.1 μM); D (>0.1 μM); —: “-”=not tested or inactive; details: for Dmax: read-out: MK2 MSD SW 1353 24 h Dmax %; for DC50: read-out: MK2 MSD SW1353 degradation 24 h GMean External Abs DC50
Protocol: MK2 Degradation in Human SW1353 Cells
as §1, with “chondrocyte” for “monocytic”, “SW-1353 (ATCC(HTB-94))” for “THP-1 (ATCC (TIB-202))”, “Leibovitz's L-15 Medium” for “RPMI 1640”, “Celsius.” for “Celsius and 5% CO2.”, “Celsius.” for “Celsius and 5% carbon dioxide.”
as §2, §3, §4

T1 sequence (P49137 whole entry): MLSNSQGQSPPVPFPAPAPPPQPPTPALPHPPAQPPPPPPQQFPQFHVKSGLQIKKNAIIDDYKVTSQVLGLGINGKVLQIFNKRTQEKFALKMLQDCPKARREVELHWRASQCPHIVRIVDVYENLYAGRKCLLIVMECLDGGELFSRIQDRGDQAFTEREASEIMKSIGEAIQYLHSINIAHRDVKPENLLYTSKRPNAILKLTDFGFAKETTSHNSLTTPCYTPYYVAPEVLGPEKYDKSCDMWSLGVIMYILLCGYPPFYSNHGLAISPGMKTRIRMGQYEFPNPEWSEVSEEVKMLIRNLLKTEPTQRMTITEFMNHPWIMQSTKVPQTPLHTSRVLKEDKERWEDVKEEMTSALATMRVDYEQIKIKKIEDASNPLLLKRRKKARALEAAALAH

Row | Dmax (MK2 [1]) [%] | DC50 (MK2 [1]) [nM] | Dmax (MK2 [2]) [%] | DC50 (MK2 [2]) [nM] | MK2 MSD THP-1 degradation 24 h GMean External Abs DC50 (MK2 [1]) | MK2 MSD SW1353 degradation 24 h GMean External Abs DC50 (MK2 [2]) | SMILES
1 | > 75 | < 1 | > 75 | < 1 |  |  | Cn1c(=O)n(C2CCC(=O)NC2=O)c2ccc(N3CCC(CN4CCN(c5ccc(-c6cc(-c7cc8c([nH]7)CCNC8=O)ccn6)cc5)CC4)CC3)cc21 (stereo not shown) [Compound I-143]
2 | < 50 | > 100 | < 50 | > 100 |  |  | Cn1c(=O)n(C2CCC(=O)NC2=O)c2cccc(C3CCN(CC4CCN(c5ccc(F)c(-c6cc(-c7cc8c([nH]7)CCNC8=O)ccn6)c5)CC4)CC3)c21 (stereo not shown) [Compound I-146]
3 | > 75 | 10 to 100 | > 75 | 10 to 100 |  |  | CN1CC2(CNC(=O)c3c2[nH]c2c3CCc3cnc(-c4ccc(N5CCN(CCCCc6cccc7c6n(C)c(=O)n7C6CCC(=O)NC6=O)CC5)cc4F)cc3-2)C1 (stereo not shown) [Compound I-154]
4 | < 50 | > 100 | < 50 | > 100 |  |  | CN1CC2(CNC(=O)c3c2[nH]c2c3CCc3cnc(-c4cc(N5CCN(CCCCc6cccc7c6n(C)c(=O)n7C6CCC(=O)NC6=O)CC5)ccc4F)cc3-2)C1 (stereo not shown) [Compound I-155]
5 | > 75 | < 1 | > 75 | < 1 |  |  | C[C@@H]1CNc2c(sc3ccc4nc(-c5cncc(N6CCN(CCCCCc7cccc8c7n(C)c(=O)n8C7CCC(=O)NC7=O)CC6)c5)ccc4c23)C(=O)N1 (stereo partly shown) [Compound I-156]
6 | > 75 | < 1 | > 75 | < 1 |  |  | C[C@@H]1CNc2c(sc3ccc4nc(-c5cncc(N6CCN(CCCc7ccc8c(c7)n(C)c(=O)n8C7CCC(=O)NC7=O)CC6)c5)ccc4c23)C(=O)N1 (stereo partly shown) [Compound I-157]
7 | > 75 | < 1 | > 75 | 1 to 10 |  |  | C[C@@H]1CNc2c(sc3ccc4nc(-c5cncc(N6CCN(CCCCCCCc7cccc8c7n(C)c(=O)n8C7CCC(=O)NC7=O)CC6)c5)ccc4c23)C(=O)N1 (stereo partly shown) [Compound I-158]
8 | > 75 | < 1 | > 75 | < 1 |  |  | C[C@@H]1CNc2c(sc3ccc4nc(-c5cncc(N6CCN(CC7CCN(c8cccc9c8n(C)c(=O)n9C8CCC(=O)NC8=O)CC7)CC6)c5)ccc4c23)C(=O)N1 (stereo partly shown) [Compound I-160]
9 | > 75 | < 1 | > 75 | < 1 |  |  | C[C@@H]1CNc2c(sc3ccc4nc(-c5cncc(N6CCN(CC7CCN(c8ccc9c(c8)n(C)c(=O)n9C8CCC(=O)NC8=O)CC7)CC6)c5)ccc4c23)C(=O)N1 (stereo partly shown) [Compound I-161]
10 | > 75 | < 1 | > 75 | < 1 |  |  | C[C@@H]1CNc2c(sc3ccc4nc(-c5cncc(C6CCN(CC7CCN(c8ccc9c(c8)n(C)c(=O)n9C8CCC(=O)NC8=O)CC7)CC6)c5)ccc4c23)C(=O)N1 (stereo partly shown) [Compound I-165]
11 | < 50 | > 100 | < 50 | > 100 |  |  | Cn1c(=O)n(C2CCC(=O)NC2=O)c2cccc(CCCCN3CC4(CCN(c5ccc6c(c5)Cn5cc(-c7ccc(F)cc7)cc5-c5nccn5-6)C4)C3)c21 (stereo not shown) [Compound I-167]
12 | < 50 | > 100 | < 50 | > 100 |  |  | Cn1c(=O)n(C2CCC(=O)NC2=O)c2ccc(CCCCCCN3CC4(CCN(c5ccc6c(c5)Cn5cc(-c7ccc(F)cc7)cc5-c5nccn5-6)C4)C3)cc21 (stereo not shown) [Compound I-168]
13 | > 75 | 1 to 10 | > 75 | 1 to 10 |  |  | C[C@@H]1CNc2c(sc3ccc4nc(-c5ccc(N6CCN(CCCCCCCCc7cccc8c7n(C)c(=O)n8C7CCC(=O)NC7=O)CC6)cc5)ccc4c23)C(=O)N1 (stereo partly shown) [Compound I-170]
14 | 50 to 75 | 1 to 10 | > 75 | 1 to 10 |  |  | C[C@@H]1CNc2c(sc3ccc4nc(-c5ccc(N6CCN(CCCCCc7cccc8c7n(C)c(=O)n8C7CCC(=O)NC7=O)CC6)cc5)ccc4c23)C(=O)N1 (stereo partly shown) [Compound I-171]
15 | > 75 | < 1 | > 75 | < 1 |  |  | C[C@@H]1CNc2c(sc3ccc4nc(-c5ccc(N6CCN(CCCc7cccc8c7n(C)c(=O)n8C7CCC(=O)NC7=O)CC6)cc5)ccc4c23)C(=O)N1 (stereo partly shown) [Compound I-172]
16 | > 75 | < 1 | > 75 | < 1 |  |  | C[C@@H]1CNc2c(sc3ccc4nc(-c5ccc(N6CCN(CCCc7ccc8c(c7)n(C)c(=O)n8C7CCC(=O)NC7=O)CC6)cc5)ccc4c23)C(=O)N1 (stereo partly shown) [Compound I-173]
17 | > 75 | < 1 | > 75 | < 1 |  |  | C[C@@H]1CNc2c(sc3ccc4nc(-c5ccc(N6CCN(CCCCCc7ccc8c(c7)n(C)c(=O)n8C7CCC(=O)NC7=O)CC6)cc5)ccc4c23)C(=O)N1 (stereo partly shown) [Compound I-174]
18 | > 75 | 1 to 10 | > 75 | 1 to 10 |  |  | C[C@@H]1CNc2c(sc3ccc4nc(-c5ccc(N6CCN(CCCCCCCCc7ccc8c(c7)n(C)c(=O)n8C7CCC(=O)NC7=O)CC6)cc5)ccc4c23)C(=O)N1 (stereo partly shown) [Compound I-175]
19 | 50 to 75 | 1 to 10 | > 75 | 1 to 10 |  |  | C[C@@H]1CNc2c(sc3ccc4nc(-c5cccc(N6CCN(CCCCCCCCc7ccc8c(c7)n(C)c(=O)n8C7CCC(=O)NC7=O)CC6)c5)ccc4c23)C(=O)N1 (stereo partly shown) [Compound I-176]
20 | > 75 | 10 to 100 | > 75 | 10 to 100 |  |  | C[C@@H]1CNc2c(sc3ccc4nc(-c5cccc(N6CCN(CCCCCCCCCCc7cccc8c7n(C)c(=O)n8C7CCC(=O)NC7=O)CC6)c5)ccc4c23)C(=O)N1 (stereo partly shown) [Compound I-177]
21 | > 75 | 10 to 100 | > 75 | 10 to 100 |  |  | C[C@@H]1CNc2c(sc3ccc4nc(-c5cccc(N6CCN(CCCCCCCCCCc7ccc8c(c7)n(C)c(=O)n8C7CCC(=O)NC7=O)CC6)c5)ccc4c23)C(=O)N1 (stereo partly shown) [Compound I-178]
22 | > 75 |  | > 75 |  | — | — | Cn1c(=O)n(C2CCC(=O)NC2=O)c2cccc(CCN3CCN(c4ccc(-c5cc(-c6cc7c([nH]6)C6(CC6)CNC7=O)ccn5)c(F)c4)CC3)c21 (stereo not shown) [Compound I-179]
23 | > 75 |  | > 75 |  |  |  | COc1cc(-c2ccc3c(ccc4sc5c(c43)NC[C@@H](C)NC5=O)n2)c(F)cc1N1CCN(CC2CCN(c3ccc4c(c3)n(C)c(=O)n4C3CCC(=O)NC3=O)CC2)CC1 (stereo partly shown) [Compound I-180]
24 | < 50 |  | < 50 |  | — | — | C[C@@H]1CNc2c(sc3ccc4nc(N5C[C@H]6C[C@@H]5CN6CC5CCN(c6cccc7c6n(C)c(=O)n7C6CCC(=O)NC6=O)CC5)ccc4c23)C(=O)N1 (stereo partly shown) [Compound I-182]
